Assay results: patent US10322097B2, “Treatment of subjects with multidrug-resistant cancer” (priority 2015, dated 2019)
pIC50: −log10 of the molar value.

Columns and labels:
[1] = system: MDA-MB-231 pcDNA breast cancer cells; assay: MTT cytotoxicity assay, MDA-MB-231 pcDNA; type: cell-based; details: Homo sapiens, MDA-MB-231, 72 h, 3 days
Experimental: (§1) Cell cultures and cytotoxicity assays have been used. Celastrol was dissolved in DMSO at a final concentration of 100 mmol/L and stored at −20° C. Cytotoxicity was assessed using the 3-(4,5-dimethylthiazol-2-yl)-2,5-diphenyltetrazolium bromide assay. 4000 cells from HEK293 and HEK293/ABCB5 kidney cancer cells or MDA-MB-231 pcDNA and MDA-MB-231/BCRP breast cancer cells were seeded on 96-well plates per well. After overnight pre-incubation, the cells were exposed to different concentrations of celastrol (0.1-10 μmol/L) for 3 days. Subsequently, 10 μL of MTT reagents were added to each well and incubated at 37° C. for 4 hours followed by the addition of 100 μL solubilization buffer (10% SDS in 0.01 mol/L HCl) and overnight incubation. Absorbance at 585 nm was determined from each well the next day. The percentage of cell viability was calculated using the following formula: Cell viability (%)=Cells number treated/Cells number DMSO control×100. Data were obtained from three independent experiments.

[2] = system: HCT-8 (Colon) taxol resistant cancer cells; assay: MTT cytotoxicity assay, HCT-8 taxol resistant; type: cell-based, human
Experimental: as §1, with “from A549 (lung), A2780 (ovary), HCT-8 (colon)” for “from HEK293”, “and MCF-7 (breast)” for “and HEK293/ABCB5 kidney cancer cells or MDA-MB-231 pcDNA and MDA-MB-231/BCRP breast”, “celastrol (0.039-100” for “celastrol (0.1-10”, “μmol/L) or taxol” for “μmol/L)”, “reagents was” for “reagents were”

[3] = system: DLD-1 Bax-Bak+/+ colon cancer cells; assay: MTT cytotoxicity assay, DLD-1 Bax-Bak+/+; type: cell-based; details: Homo sapiens, DLD-1, 72 h, read-out: IC50 DLD-1 Bax-Bak+/+ colon cancer cells
Experimental: (§2) Cell cultures and cytotoxicity assays have been used. Celastrol was dissolved in DMSO at a final concentration of 100 mmol/L and stored at −20° C. Cytotoxicity was assessed using the 3-(4,5-dimethylthiazol-2-yl)-2,5-diphenyltetrazolium bromide assay. 4000 cells from HCT116 p53^+/+ or p53^−/− colon cancer cells and DLD-1 Bax-Bak^+/+ or Bax-Bak^−/− colon cancer cells were seeded on 96-well plates per well. […] Subsequently, 10 μL of MTT reagents were added to each well and incubated at 37° C. for 4 hours followed by the addition of 100 μL solubilization buffer (10% SDS in 0.01 mol/L HCl) and overnight incubation. […] The percentage of cell viability was calculated using the following formula: Cell viability (%)=Cells number treated/Cells number DMSO control×100. Data were obtained from three independent experiments.

[4] = system: CEM-ADR5000 (Leukemia) doxorubicin resistant cells; assay: MTT cytotoxicity assay, CEM-ADR5000; type: cell-based, human
Experimental: as §1, with “MCF-7 doxorubicin sensitive/resistant breast” for “HEK293 and HEK293/ABCB5 kidney”, “CEM doxorubicin sensitive/resistant leukemia” for “MDA-MB-231 pcDNA and MDA-MB-231/BCRP breast cancer”, “(0.039-100” for “(0.1-10”, “μmol/L) or doxorubicin” for “μmol/L)”

[5] = system: HCT116 p53-/- colon cancer cells; assay: MTT cytotoxicity assay, HCT116 p53-/-; type: cell-based
Experimental: as §2

[6] = system: HCT116 p53+/+ colon cancer cells; assay: MTT cytotoxicity assay, HCT116 p53+/+; type: cell-based; details: Homo sapiens, HCT-116, 72 h, read-out: IC50 HCT116 p53+/+ colon cancer cells
Experimental: as §2

[7] = system: MCF-7 (Breast) taxol sensitive cancer cells; assay: MTT cytotoxicity assay, MCF-7 taxol sensitive; type: cell-based; details: Homo sapiens, MCF7, 72 h, read-out: IC50 MCF-7 (Breast) (Taxol sensitive)
Experimental: as §1, with “from A549 (lung), A2780 (ovary), HCT-8 (colon)” for “from HEK293”, “and MCF-7 (breast)” for “and HEK293/ABCB5 kidney cancer cells or MDA-MB-231 pcDNA and MDA-MB-231/BCRP breast”, “celastrol (0.039-100” for “celastrol (0.1-10”, “μmol/L) or taxol” for “μmol/L)”, “reagents was” for “reagents were”

[8] = system: MCF-7 (Breast) doxorubicin sensitive cancer cells; assay: MTT cytotoxicity assay, MCF-7 doxorubicin sensitive; type: cell-based; details: Homo sapiens, MCF7, 72 h, read-out: IC50 MCF-7 (Breast) (Doxorubicin sensitive)
Experimental: as §1, with “MCF-7 doxorubicin sensitive/resistant breast” for “HEK293 and HEK293/ABCB5 kidney”, “CEM doxorubicin sensitive/resistant leukemia” for “MDA-MB-231 pcDNA and MDA-MB-231/BCRP breast cancer”, “(0.039-100” for “(0.1-10”, “μmol/L) or doxorubicin” for “μmol/L)”

[9] = system: SGC-7901 (Gastric) cisplatin resistant cancer cells; assay: MTT cytotoxicity assay, SGC-7901 cisplatin resistant; type: cell-based, human
Experimental: as §1, with “A2780 cisplatin sensitive/resistant ovarian” for “HEK293 and HEK293/ABCB5 kidney”, “SGC-7901 cisplatin sensitive/resistant gastric” for “MDA-MB-231 pcDNA and MDA-MB-231/BCRP breast”, “(0.039-100” for “(0.1-10”, “μmol/L) or cisplatin” for “μmol/L)”

[10] = system: HCT-8 (Colon) taxol sensitive cancer cells; assay: MTT cytotoxicity assay, HCT-8 taxol sensitive; type: cell-based; details: Homo sapiens, HCT-8, 72 h, read-out: IC50 HCT-8 (Colon) (Taxol sensitive)
Experimental: as §1, with “from A549 (lung), A2780 (ovary), HCT-8 (colon)” for “from HEK293”, “and MCF-7 (breast)” for “and HEK293/ABCB5 kidney cancer cells or MDA-MB-231 pcDNA and MDA-MB-231/BCRP breast”, “celastrol (0.039-100” for “celastrol (0.1-10”, “μmol/L) or taxol” for “μmol/L)”, “reagents was” for “reagents were”

Question: `CC1=C(O)C(=O)C=C2C1=CC=C1[C@@]2(C)CC[C@@]2(C)[C@@H]3C[C@](C)(C(=O)O)CC[C@]3(C)CC[C@]12C` [Celastrol, celastrol] was tested. Which pIC50 [1] did it give?
Answer: Its pIC50 is 5.32.

Question: What about the “Resistant Factor” value ([2]; HCT-8 taxol resistant versus taxol sensitive) of the same compound?
Answer: Its value is 0.59.

Question: And the pIC50 ([2]; Homo sapiens, HCT-8, 72 h, read-out: IC50 HCT-8 (Colon) (Taxol resistant))?
Answer: The pIC50 was 6.26.

Question: What about the pIC50 [3] of the same compound?
Answer: Its pIC50 is 6.24.

Question: And the “Resistant Factor” value ([4]; CEM-ADR5000 versus CCRF-CEM)?
Answer: Its value is 0.033.

Question: What about the pIC50 ([4]; Homo sapiens, 72 h, MTT, 3 days) of the same compound?
Answer: Its pIC50 is 6.97.

Question: And the pIC50 ([5]; Homo sapiens, HCT-116, 72 h, read-out: IC50 HCT116 p53-/- colon cancer cells)?
Answer: The pIC50 was 6.32.

Question: What about the “Resistant Factor” value ([5]; IC50 HCT116 p53-/- divided by IC50 HCT116 p53+/+) of the same compound?
Answer: The value was 0.58.

Question: What about the pIC50 [6] of the same compound?
Answer: Its pIC50 is 6.08.

Question: What about the pIC50 [7] of the same compound?
Answer: The pIC50 was 5.95.

Question: What about the pIC50 [8] of the same compound?
Answer: The pIC50 was 5.95.

Question: And the pIC50 ([9]; Homo sapiens, SGC-7901, 72 h, read-out: IC50 SGC-7901 (Gastric) (Cisplatin resistant))?
Answer: The pIC50 was 5.76.

Question: What about the “Resistant Factor” value ([9]; SGC-7901 cisplatin resistant versus cisplatin sensitive) of the same compound?
Answer: Its value is 0.88.

Question: And the pIC50 [10]?
Answer: Its pIC50 is 6.03.
